Measurements published in paper PMC4274187 (Bioorganic & medicinal chemistry, 2014).

What was measured:
[1] = molecular target: dopamine transporter (DAT) (Mus musculus, UniProt Q61327); assay: DAT binding, [125I]RTI-121, mouse striatal membranes; details: for inhibition at 10 µM: read-out: DAT % Inh.
σ1 receptors = details: read-out: apparent affinity for σ1 receptors; more recent determination; cited from earlier work
[2] = test system: norepinephrine transporter; details: cited from earlier work
[3] = molecular target: serotonin transporter (SERT) (Mus musculus, UniProt Q60857); assay: SERT binding, [3H]paroxetine, mouse whole brain membranes; details: ratio of DAT and SERT Ki
Chain of serotonin transporter (SERT) (Q60857 whole entry): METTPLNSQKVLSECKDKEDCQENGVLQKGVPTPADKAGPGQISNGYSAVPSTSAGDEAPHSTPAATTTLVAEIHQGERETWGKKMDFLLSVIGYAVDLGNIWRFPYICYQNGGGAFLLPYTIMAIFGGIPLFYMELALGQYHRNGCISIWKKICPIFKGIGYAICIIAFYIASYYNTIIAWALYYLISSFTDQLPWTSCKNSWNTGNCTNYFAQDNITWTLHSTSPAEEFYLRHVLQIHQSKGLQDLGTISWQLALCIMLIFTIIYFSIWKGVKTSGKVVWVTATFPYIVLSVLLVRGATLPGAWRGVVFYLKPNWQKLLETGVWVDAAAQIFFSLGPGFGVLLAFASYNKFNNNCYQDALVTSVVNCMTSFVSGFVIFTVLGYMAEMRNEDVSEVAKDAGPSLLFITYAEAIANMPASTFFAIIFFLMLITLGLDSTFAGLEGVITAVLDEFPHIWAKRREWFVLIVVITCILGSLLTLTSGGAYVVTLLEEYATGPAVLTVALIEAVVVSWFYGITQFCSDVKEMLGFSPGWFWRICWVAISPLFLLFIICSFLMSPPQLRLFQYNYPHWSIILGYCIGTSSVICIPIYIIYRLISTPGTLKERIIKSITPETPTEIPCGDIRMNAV

[4] = molecular target: vesicular acetylcholine transporter; details: read-out: vesicular acetylcholine transporter Ki; secondary interaction; cited from earlier work

Chain of dopamine transporter (DAT) (Q61327 whole entry): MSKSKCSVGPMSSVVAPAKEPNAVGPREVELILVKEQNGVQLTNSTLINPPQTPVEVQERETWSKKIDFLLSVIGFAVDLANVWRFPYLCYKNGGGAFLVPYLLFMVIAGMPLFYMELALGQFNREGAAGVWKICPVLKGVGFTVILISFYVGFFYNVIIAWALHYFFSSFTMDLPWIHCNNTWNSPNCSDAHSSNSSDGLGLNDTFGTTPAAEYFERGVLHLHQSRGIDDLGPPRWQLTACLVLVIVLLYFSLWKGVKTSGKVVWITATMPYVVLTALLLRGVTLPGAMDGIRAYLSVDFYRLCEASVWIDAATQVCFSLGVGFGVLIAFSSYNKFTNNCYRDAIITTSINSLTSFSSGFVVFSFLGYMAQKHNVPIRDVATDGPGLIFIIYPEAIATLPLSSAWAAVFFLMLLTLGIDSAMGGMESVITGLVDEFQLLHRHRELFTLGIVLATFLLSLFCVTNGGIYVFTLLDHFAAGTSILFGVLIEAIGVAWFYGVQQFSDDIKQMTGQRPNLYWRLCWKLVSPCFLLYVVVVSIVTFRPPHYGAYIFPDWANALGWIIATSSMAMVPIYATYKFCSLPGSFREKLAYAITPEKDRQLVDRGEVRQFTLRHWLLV

| SMILES | inhibition at 10 µM [1] [%] | Ki [1] [nM] | also measured |
| --- | --- | --- | --- |
| COc1cc(CCN2CCN(CCCc3ccccc3)CC2)ccc1OCCF [FE-SA4503] | 19 | – | – |
| Fc1ccc(C(OCCN2CCN(CCCc3ccccc3)CC2)c2ccc(F)cc2)cc1 [GBR 12909] | – | – | Ki (σ1 receptors): 50.8 nM; affinity for the norepinephrine transporter [2]: > 1000 nM |
| CCCOc1ccc(CCN2CCN(CCCc3ccccc3)CC2)cc1OC [compound 1, 1-(3-methoxy-4-propoxyphenethyl)-4-(3-phenylpropyl)piperazine] | – | ~2000 | – |
| COc1cc(CCN2CCN(CCCc3ccccc3)CC2)ccc1OCc1ccccc1 [compound 4, 1-(4-(benzyloxy)-3-methoxyphenethyl)-4-(3-phenylpropyl)piperazine] | – | – | higher DAT affinity than SA4503 ([1]; relative to parent SA4503): over 100 fold |

Second part, led by results:

| inhibition at 10 µM [1] [%] | Ki [1] [nM] | SMILES | also measured |
| --- | --- | --- | --- |
| 23 | 12700 ± 832 | COc1ccc(CCN2CCN(CCCc3ccccc3)CC2)cc1OC [SA4503, 1-[2-(3,4-dimethoxyphenyl)ethyl]-4-(3-phenylpropyl)piperazine] | higher affinity for SERT over DAT [3]: 16 fold; Ki [4]: 50 nM |
| – | ~2000 | c1ccc(CCCN2CCN(CCc3ccc4c(c3)OCO4)CC2)cc1 [compound 7, 1-(3,4-methylenedioxyphenethyl)-4-(3-phenylpropyl)piperazine] | – |
